Assay results: the supplement of paper PMC12669032

What was measured:
Experiment in all cases: growth AUC relative to DMSO control (fraction); higher = more growth (less inhibition)
Conditions in all cases: 24 h
Streptococcus salivarius = system: Streptococcus salivarius
Experimental: (§1)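 Validation screen: 11 independently purchased pesticides tested on 8 gut bacterial strains at 2.5–320 µM in mGAM, anaerobic, 37 °C, 24 h. Growth AUC normalised to DMSO controls, mean of 3 independent experiments.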

Bacteroides uniformis = system: Bacteroides uniformis
Experimental: as §1

[1] = system: Parabacteroides distasonis
Experimental: as §1

Clostridium difficile = system: Clostridium difficile
Experimental: as §1

Eubacterium rectale = system: Eubacterium rectale
Experimental: as §1

Lactobacillus gasseri = system: Lactobacillus gasseri
Experimental: as §1

Escherichia coli IAI1 = system: Escherichia coli IAI1
Experimental: as §1

Roseburia intestinalis = system: Roseburia intestinalis
Experimental: as §1

CCCC1COC(Cn2cncn2)(c2ccc(Cl)cc2Cl)O1 (stereo not given) [PROPICONAZOLE]
growth AUC
Conditions | Bacteroides uniformis | Clostridium difficile | Escherichia coli IAI1 | Eubacterium rectale | Lactobacillus gasseri | Roseburia intestinalis | Streptococcus salivarius | [1]
2.5 µM | 1.03 | 0.982 | 1 | 1.19 | 1.03 | 0.971 | 1.1 | 1.12
5 µM | 0.99 | 1.01 | 0.993 | 0.951 | 0.968 | 0.925 | 1.04 | 1
10 µM | 1.02 | 0.967 | 0.971 | 0.703 | 1.02 | 1.01 | 1.06 | 0.988
20 µM | 0.97 | 1.03 | 0.981 | 0.475 | 0.96 | 0.894 | 0.994 | 0.874
40 µM | 0.951 | 0.981 | 0.999 | 0.344 | 0.972 | 0.947 | 1.04 | 0.488
80 µM | 0.915 | 0.979 | 0.975 | 0.0163 | 0.94 | 0.716 | 1.06 | 0.284
160 µM | 0.831 | 0.885 | 0.996 | 0.0214 | 0.851 | 0.202 | 1.03 | 0.0246
320 µM | 0.618 | 0.385 | 0.994 | 0.0204 | 0.832 | 0.0162 | 0.932 | 0.0187

CCCCOC(=O)[C@@H](C)Oc1ccc(Oc2ccc(C#N)cc2F)cc1 [CYHALOFOP-BUTYL]
growth AUC
Conditions | Bacteroides uniformis | Clostridium difficile | Escherichia coli IAI1 | Eubacterium rectale | Lactobacillus gasseri | Roseburia intestinalis | Streptococcus salivarius | [1]
2.5 µM | 1.01 | 1.02 | 1.01 | 1.11 | 1.05 | 1.01 | 1.07 | 1.04
5 µM | 0.969 | 0.984 | 0.98 | 1.04 | 0.986 | 0.964 | 1.02 | 0.93
10 µM | 0.994 | 0.98 | 0.975 | 1.05 | 0.986 | 1.02 | 0.957 | 0.859
20 µM | 0.937 | 1.03 | 0.972 | 0.967 | 0.981 | 0.891 | 0.972 | 0.717
40 µM | 0.971 | 1.02 | 0.996 | 1.02 | 0.956 | 0.981 | 0.981 | 0.643
80 µM | 0.99 | 0.992 | 0.979 | 1.13 | 1.01 | 0.976 | 0.999 | 0.684
160 µM | 0.968 | 1.01 | 0.992 | 1.18 | 0.969 | 0.998 | 1.01 | 0.588
320 µM | 0.925 | 0.977 | 1 | 1.28 | 0.975 | 0.918 | 1.1 | 0.437

Cc1cc(C(C#N)c2ccc(Cl)cc2)c(Cl)cc1NC(=O)c1cc(I)cc(I)c1O (stereo not given) [CLOSANTEL]
growth AUC
Conditions | Bacteroides uniformis | Clostridium difficile | Escherichia coli IAI1 | Eubacterium rectale | Lactobacillus gasseri | Roseburia intestinalis | Streptococcus salivarius | [1]
2.5 µM | 1 | 0.0348 | 1.07 | 0.453 | 0.809 | 0.246 | 1.05 | 0.245
5 µM | 0.973 | 0.0106 | 1.04 | 0.242 | 0.827 | 0.149 | 1.04 | 0.00935
10 µM | 0.616 | 0.0157 | 1.03 | 0.0185 | 0.866 | 0.0586 | 1.09 | 0.00581
20 µM | 0.609 | 0.0183 | 0.929 | 0.0129 | 0.848 | 0.0162 | 1.06 | 0.00682
40 µM | 0.573 | 0.00635 | 0.904 | 0.00913 | 0.815 | 0.0268 | 1.04 | 0.0119
80 µM | 0.575 | 0.0171 | 0.886 | 0.0119 | 0.836 | 0.0158 | 1.13 | 0.0133
160 µM | 0.575 | 0.072 | 0.861 | 0.0223 | 0.81 | 0.0258 | 1.06 | 0.0101

CCC(C)[C@H]1O[C@]2(C=C[C@@H]1C)C[C@@H]1C[C@@H](C/C=C(\C)[C@@H](O[C@H]3C[C@H](OC)[C@@H](O[C@H]4C[C@H](OC)[C@@H](O)[C@H](C)O4)[C@H](C)O3)[C@@H](C)/C=C/C=C3\CO[C@@H]4[C@H](O)C(C)=C[C@@H](C(=O)O1)[C@]34O)O2.CO[C@H]1C[C@H](O[C@H]2[C@H](C)O[C@@H](O[C@@H]3/C(C)=C/C[C@@H]4C[C@@H](C[C@]5(C=C[C@H](C)[C@@H](C(C)C)O5)O4)OC(=O)[C@@H]4C=C(C)[C@@H](O)[C@H]5OC/C(=C\C=C\[C@@H]3C)[C@]54O)C[C@@H]2OC)O[C@@H](C)[C@@H]1O (stereo not given in full) [ABAMECTIN]
growth AUC
Conditions | Bacteroides uniformis | Clostridium difficile | Escherichia coli IAI1 | Eubacterium rectale | Lactobacillus gasseri | Roseburia intestinalis | Streptococcus salivarius | [1]
2.5 µM | 0.975 | 1.02 | 1.01 | 1.29 | 1.04 | 0.865 | 1.04 | 0.985
5 µM | 0.996 | 0.979 | 0.978 | 1.17 | 1.07 | 0.871 | 0.973 | 0.918
10 µM | 0.968 | 0.968 | 1.01 | 1.05 | 1.03 | 0.564 | 0.983 | 0.409
20 µM | 0.996 | 0.986 | 0.957 | 0.881 | 0.983 | 0.21 | 0.876 | 0.057
40 µM | 0.974 | 0.966 | 1.01 | 0.774 | 0.952 | 0.121 | 0.894 | 0.0234
80 µM | 0.971 | 0.887 | 1 | 0.892 | 1.02 | 0.102 | 0.887 | 0.0192
160 µM | 0.99 | 0.885 | 0.974 | 0.999 | 0.889 | 0.107 | 1.01 | 0.0484

O=[N+]([O-])c1cc(C(F)(F)F)c(Cl)c([N+](=O)[O-])c1Nc1ncc(C(F)(F)F)cc1Cl [FLUAZINAM]
growth AUC
Conditions | Bacteroides uniformis | Clostridium difficile | Escherichia coli IAI1 | Eubacterium rectale | Lactobacillus gasseri | Roseburia intestinalis | Streptococcus salivarius | [1]
2.5 µM | 1.04 | 0.99 | 1.03 | 1.04 | 1.01 | 1.01 | 1.04 | 0.966
5 µM | 1.02 | 0.995 | 1.01 | 0.887 | 0.968 | 1.08 | 1 | 0.859
10 µM | 0.996 | 0.969 | 1.03 | 0.692 | 0.921 | 0.959 | 0.984 | 0.411
20 µM | 0.807 | 0.909 | 0.912 | 0.227 | 0.844 | 0.879 | 0.815 | 0.0128
40 µM | 0.593 | 0.0127 | 0.934 | 0.0306 | 0.847 | 0.584 | 0.992 | 0.0301
